Source: patent US12187773B2, “Modified GIP peptide analogues” (Antag Therapeutics ApS, priority 2018, dated 2025)
Where two headings read alike, the source gives them in different places. Where a SMILES comes first, the peptide text is derived from it. The star is where a group is joined. C18 diacid = O=C(O)CCCCCCCCCCCCCCCCC(=O)*

Columns and labels:
glucagon receptor (GcgR) = target: T1, glucagon receptor (GcgR) (Homo sapiens, UniProt P47871); assay: cAMP assay - selectivity, antagonism at glucagon receptor; format: cell-based; settings: Table 3A; COS-7 cells; agonist glucagon at 50-80% of maximal cAMP
T1 construct: expressed in transfected cells; host or cells: COS-7 (transient)
T1 sequence (P47871 26-477, species assumed): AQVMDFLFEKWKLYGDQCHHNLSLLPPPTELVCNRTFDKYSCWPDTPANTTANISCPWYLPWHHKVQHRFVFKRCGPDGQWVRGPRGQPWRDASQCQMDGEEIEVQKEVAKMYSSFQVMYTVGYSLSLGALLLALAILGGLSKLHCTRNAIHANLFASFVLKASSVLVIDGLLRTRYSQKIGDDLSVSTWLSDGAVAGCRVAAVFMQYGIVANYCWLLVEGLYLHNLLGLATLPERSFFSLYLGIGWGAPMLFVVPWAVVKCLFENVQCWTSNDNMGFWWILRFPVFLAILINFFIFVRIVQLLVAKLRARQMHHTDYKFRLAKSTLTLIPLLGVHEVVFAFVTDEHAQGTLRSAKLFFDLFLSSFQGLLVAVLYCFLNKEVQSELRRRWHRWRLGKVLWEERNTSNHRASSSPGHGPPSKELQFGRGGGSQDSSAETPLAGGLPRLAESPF
Experimental: (§1) Transient transfected COS-7 cells expressing the either of the GLP1 receptor (GLP1R), GLP2 receptor (GLP2R), glucagon receptor (GcgR) or secretin receptor (SCTR) were seeded in white 96-well plates with a density of 3.5*10^4/well. The day after, the cells were washed twice with Hepes buffered saline (HBS) buffer and incubated with HBS and 1 mM 3-isobutyl-1-methylxanthine (IBMX) for 30 min at 37° C. To test for agonistic properties, ligands were added and incubated for 30 min at 37° C. In order to test for antagonistic properties, the cells were preincubated with the antagonists for 10 min prior to the addition the natural agonist for the expressed receptor (GLP1 for GLP1R expressing cells, GLP2 for GLP2R expressing cells, glucagon for the GcgR and secretin for the SCTR) and subsequent incubated for 20 additional min. […] The HitHunter™ cAMP XS assay (DiscoveRx) was carried out according to the manufacturer's instructions.

human GIP receptor [1] = target: T2, human GIP receptor (Homo sapiens, UniProt P48546); assay: cAMP accumulation, antagonism (DiscoveRx HitHunter cAMP XS assay); format: cell-based; parameters: host or cells: COS-7 (transient, calcium phosphate; pCMV-Script vector)
T2 sequence (P48546 22-466): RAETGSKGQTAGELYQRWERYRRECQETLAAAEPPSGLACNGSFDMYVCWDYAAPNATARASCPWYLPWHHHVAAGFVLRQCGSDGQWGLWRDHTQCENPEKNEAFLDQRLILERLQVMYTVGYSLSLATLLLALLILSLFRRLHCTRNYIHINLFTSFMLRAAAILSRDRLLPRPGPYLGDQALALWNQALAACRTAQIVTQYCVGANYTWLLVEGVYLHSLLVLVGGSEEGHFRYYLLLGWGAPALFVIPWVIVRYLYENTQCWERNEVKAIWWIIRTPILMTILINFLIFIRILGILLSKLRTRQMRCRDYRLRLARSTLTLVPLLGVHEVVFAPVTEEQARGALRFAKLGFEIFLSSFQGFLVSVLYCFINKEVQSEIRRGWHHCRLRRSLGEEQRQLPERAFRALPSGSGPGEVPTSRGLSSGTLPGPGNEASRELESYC
How it was run: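 Transiently transfected COS-7 cells expressing human GIP receptor, pretreated with 1 mM IBMX in HBS 30 min at 37 °C. Agonism: ligand 30 min at 37 °C; antagonism: 10 min antagonist preincubation, then GIP at 50-80% maximal response for 20 min. cAMP measured by HitHunter cAMP XS.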

human GIP receptor [2] = target: T2, human GIP receptor; assay: cAMP agonism (CisBio cAMP Dynamic 2 HTRF assay); format: cell-based; settings: HEK293, read-out: cAMP agonism, % Efficacy, Table 1C, HEK-293 cells
Experimental: To test for agonistic properties at the GIP receptor, compounds were diluted and added to cells as described above and incubated for 30 min at 37° C. The resulting increase in intracellular cAMP was determined using the CisBio cAMP Dynamic 2 HTRF Assay Kit as described above.

[3] = Elimination half-life (T1/2) estimated in Göttingen minipigs; format: in vivo
GLP1 receptor (GLP1R) = target: T3, GLP1 receptor (GLP1R) (Homo sapiens, UniProt P43220); assay: cAMP assay - selectivity, antagonism at GLP1 receptor; format: cell-based; settings: Table 3A; COS-7 cells; agonist GLP1 at 50-80% of maximal cAMP
T3 construct: expressed in transfected cells; host or cells: COS-7 (transient)
T3 sequence (P43220 24-463, species assumed): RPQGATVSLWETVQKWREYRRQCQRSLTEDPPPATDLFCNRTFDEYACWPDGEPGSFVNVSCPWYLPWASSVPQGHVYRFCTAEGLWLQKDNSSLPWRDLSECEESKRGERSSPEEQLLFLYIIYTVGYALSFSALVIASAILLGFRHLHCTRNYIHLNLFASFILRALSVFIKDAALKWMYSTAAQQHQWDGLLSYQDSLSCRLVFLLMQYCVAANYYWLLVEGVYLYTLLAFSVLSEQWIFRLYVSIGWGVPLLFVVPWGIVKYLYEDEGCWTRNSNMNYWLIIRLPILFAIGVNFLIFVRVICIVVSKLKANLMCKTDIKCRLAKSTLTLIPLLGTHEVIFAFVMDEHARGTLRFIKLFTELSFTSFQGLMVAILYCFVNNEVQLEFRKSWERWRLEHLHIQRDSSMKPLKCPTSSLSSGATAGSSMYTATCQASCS
Experimental: as §1

Q: Which results are given for `CC[C@H](C)[C@H](NC(=O)[C@H](CO)NC(=O)[C@H](Cc1ccc(O)cc1)NC(=O)[C@H](CC(=O)O)NC(=O)[C@H](CO)NC(=O)[C@@H](NC(=O)[C@H](Cc1ccccc1)NC(=O)[C@@H](NC(=O)CNC(=O)[C@@H](N)CO)[C@@H](C)O)[C@@H](C)CC)C(=O)N[C@@H](C)C(=O)N[C@@H](CCSC)C(=O)N[C@@H](CC(=O)O)C(=O)N[C@@H](CCCNC(=N)N)C(=O)N[C@H](C(=O)N[C@@H](CCCCNC(=O)CCCCCCCCCCCCCCCCC(=O)O)C(=O)N[C@@H](CCC(N)=O)C(=O)N[C@@H](CCC(N)=O)C(=O)N[C@@H](CC(=O)O)C(=O)N[C@@H](Cc1ccccc1)C(=O)N[C@H](C(=O)N[C@@H](CC(N)=O)C(=O)N[C@@H](Cc1c[nH]c2ccccc12)C(=O)N[C@@H](CC(C)C)C(=O)N[C@@H](CC(C)C)C(=O)N[C@@H](C)C(=O)N[C@@H](CCC(N)=O)C(=O)N[C@@H](CCCNC(=N)N)C(N)=O)C(C)C)[C@@H](C)CC` [AT393] (H-SGTFISDYSIAMDRIK(C18 diacid)QQDFVNWLLAQR-NH2; N-terminus assumed)?
A: Glucagon R, Antagonism, nM (glucagon receptor (GcgR)): No antagonism; IC50 (human GIP receptor [1]; IC50-value (GIPR antagonism), Examples 1 and 2, values of Tables 1B and 2): 1 nM; cAMP antagonism, % inhib (human GIP receptor [1]; Table 1B, DiscoveRx, COS-7 cells, % inhibition of Emax): 100%; GIPR, Antagonism, % inhib (human GIP receptor [1]; Table 3A/3B, DiscoveRx, COS-7 cells): 100.0%; IC50 (human GIP receptor [1]; cAMP antagonism, nM (IC50), Table 1B, DiscoveRx, transiently transfected COS-7 cells): 1 nM; Emax (human GIP receptor [2]): 6%; half-life ([3]; Göttingen, minipig, plasma, subcutaneous, Example 1, read-out: T1/2 (converted)): 25 h; half-life ([3]; sc, Table 1B, species not given, unit h, LC/MS in Göttingen minipig plasma for these IDs, subcutaneous 1-10 nmol/kg, read-out: T½ (converted)): 25 h; GLP-1R, Antagonism, nM (GLP1 receptor (GLP1R)): No antagonism
